Laboratory results published in patent publication US4310518A, “Cyclic hexapeptide somatostatin analogs” (Merck & Co., Inc., priority 1980, dated 1982).
Square brackets hold non-standard residues; d marks the D form. Peptide text beside a SMILES is read from it. NMeF = CN[C@@H](Cc1ccccc1)C(=O)O; NMeI = CC[C@H](C)[C@H](NC)C(=O)O; NMeL = CN[C@@H](CC(C)C)C(=O)O; NMeA = CN[C@@H](C)C(=O)O; dNMeA = CN[C@H](C)C(=O)O; Sar = CNCC(=O)O

Key:
[1] = system: growth hormone release from rat pituitary cells; experiment: In vitro test for the inhibition of growth hormone release in cultured rat pituitary cells; format: cell-based; conditions: multiples or fractions of the effect of somatostatin (=1), fiducial limits in parentheses, 4 hours incubation
Procedure: The instant cyclic hexapeptide analogs of somatostatin are tested and compared with the effects of somatostatin in an in vitro test for the inhibition of growth hormone. The test is described as follows:
Rat pituitaries were isolated according to the procedures of Vale and Grant "In vitro Pituitary Hormone Secretion Assay for Hypophysiotropic Substances" in Methods in Enzymology. Vol. XXXVII, eds. O'Malley, B. W. and Hardman, J. G. (Academic Press, Inc., New York) pp. 5-93 (1975).
After 4 days in culture, the cells were washed and incubated for 4 hours in Dulbecco-modified Eagle's medium in the presence or absence of graded doses of each analog of somatostatin. The medium was then collected for subsequent growth hormone determination by a double antibody radioimmunoassay for rat growth hormone."
The test results for some of the compounds of this invention are recorded below with the results for somatostatin listed first and given the arbitrary value of 1. The results for the instant compounds are given as multiples or fractions of the effect of somatostatin. The numbers in parentheses are the fiducial limits for the number preceding. The first of the instant compounds listed is the compound prepared in Examples 1-5. The compound is written slightly different, however, to conform to the order of the amino acids found in somatostatin.

[2] = system: pentagastrin evoked gastric secretion; experiment: Inhibition of pentagastrin evoked gastric secretion in the chronic fistula dog; format: in vivo; conditions: Dose 0.8 μg/ml./min., infusion 0-60 min., relative to placebo; for Gastric Secretion % Inhibition Acid Concentration 0-30 / Gastric Secretion % Inhibition Vol. 0-30: 0-30 min; for Gastric Secretion % Inhibition Acid Concentration 30-60 / Gastric Secretion % Inhibition Vol. 30-60: 30-60 min; for Gastric Secretion % Inhibition Acid Concentration 60-90 / Gastric Secretion % Inhibition Vol. 60-90: 60-90 min; for Gastric Secretion % Inhibition Acid Concentration 90-120 / Gastric Secretion % Inhibition Vol. 90-120: 90-120 min; for Gastric Secretion % Inhibition Vol. 0-30 / Gastric Secretion % Inhibition Vol. 30-60 / Gastric Secretion % Inhibition Vol. 60-90 / Gastric Secretion % Inhibition Vol. 90-120: output volume
Procedure: The effects of the instant cyclichexapeptide analogs of somatostatin are determined by the following procedure.
Compounds were tested for their ability to inhibit pentagastrin evoked gastric secretion in the chronic fistula dog. Female beagle dogs with a chronic gastric fistula were given pentagastrin (2.5 μg./kg./hour, i.v. from -60 to 120 min.) and gastric outputs were collected via the fistula cannula. Samples were analyzed at 30 minute intervals for volume (ml.) and titratable acid (mEq/L) (Titration to pH 7 with 0.01 N NaOH); total acid output (mEq) was calculated as the production of output volume and acid concentration. Test compounds were infused at a constant rate from 0 to 60 minutes. Data have been expressed as percent change of total acid output relative to a placebo trial in the same animals.

## CC(C)[C@@H]1NC(=O)[C@H](CCCCN)NC(=O)[C@@H](Cc2c[nH]c3ccccc23)NC(=O)[C@H](Cc2ccc(O)cc2)NC(=O)[C@H](C)N(C)C(=O)[C@H](Cc2c[nH]c3ccccc23)NC1=O [Cyclo--(N--Me--Ala--Tyr--D-Trp-- Lys--Val--Trp)] (cyclo(KVW[NMeA]Y[dW]))
[1]
  Growth Hormone Release Inhibition In Vitro: 26.9(17.2-40.3)

## Cyclo--(N--Me--OABU--Phe--D-Trp-- Lys--Thr--Phe)
[1]
  Growth Hormone Release Inhibition In Vitro: 24.6(15.3-46.5)

## C[C@H]1C(=O)N[C@@H](Cc2c[nH]cn2)C(=O)N[C@H](Cc2c[nH]c3ccccc23)C(=O)N[C@@H](CCCCN)C(=O)N[C@@H](CO)C(=O)N[C@@H](Cc2ccc(O)cc2)C(=O)N1C [Cyclo(N--Me--Ala--His--D-Trp-- Lys--Ser--Tyr)] (cyclo(H[dW]KSY[NMeA]))
[1]
  Growth Hormone Release Inhibition In Vitro: 0.38(0.16-0.75)

## Cyclo--(N--Me--Ala--Phe--D-Trp-- Lys--The--O--I--Phe)
[1]
  Growth Hormone Release Inhibition In Vitro: 12.1(5.2-23.4)

## Cyclo--(N--Me--Ala--O--Phe--D-Trp-- Lys--Val--L--Trp)
[1]
  Growth Hormone Release Inhibition In Vitro: 22.9(15.0-33.6)

## C[C@@H](O)[C@@H]1NC(=O)[C@H](CCCCN)NC(=O)[C@@H](Cc2c[nH]c3ccccc23)NC(=O)[C@H](Cc2ccccc2)NC(=O)[C@H](C)N(C)C(=O)[C@H](Cc2ccccc2)NC1=O [Cyclo(D-Trp-Lys-Thr-Phe-N-Me-Ala-Phe)] (cyclo(F[NMeA]F[dW]KT))
[2]
  Gastric Secretion % Inhibition Acid Concentration 0-30: 15%
  Gastric Secretion % Inhibition Acid Concentration 30-60: 41%
  Gastric Secretion % Inhibition Acid Concentration 60-90: 47%
  Gastric Secretion % Inhibition Acid Concentration 90-120: 48%
  Gastric Secretion % Inhibition Vol. 0-30: 91%
  Gastric Secretion % Inhibition Vol. 30-60: 92%
  Gastric Secretion % Inhibition Vol. 60-90: 90%
  Gastric Secretion % Inhibition Vol. 90-120: 84%
[1]
  Growth Hormone Release Inhibition In Vitro: 4.38(2.15-11.90)

## C[C@@H](O)[C@@H]1NC(=O)[C@H](CCCCN)NC(=O)[C@@H](Cc2c[nH]c3ccccc23)NC(=O)[C@H](Cc2ccccc2)NC(=O)[C@H](Cc2ccccc2)N(C)C(=O)[C@H](Cc2ccccc2)NC1=O [Cyclo(N--Me--Phe--Phe--D-Trp-- Lys--Thr--Phe)] (cyclo(F[NMeF]F[dW]KT))
[1]
  Growth Hormone Release Inhibition In Vitro: 13.3(9.6-18.1)

## CC[C@H](C)[C@H]1C(=O)N[C@@H](Cc2ccccc2)C(=O)N[C@H](Cc2c[nH]c3ccccc23)C(=O)N[C@@H](CCCCN)C(=O)N[C@@H]([C@@H](C)O)C(=O)N[C@@H](Cc2ccccc2)C(=O)N1C [Cyclo(N--Me--Ile--Phe--D-Trp-- Lys--Thr--Phe)] (cyclo(F[NMeI]F[dW]KT))
[1]
  Growth Hormone Release Inhibition In Vitro: 1.86(1.35-2.57)

## CC(C)C[C@H]1C(=O)N[C@@H](Cc2ccccc2)C(=O)N[C@H](Cc2c[nH]c3ccccc23)C(=O)N[C@@H](CCCCN)C(=O)N[C@@H]([C@@H](C)O)C(=O)N[C@@H](Cc2ccccc2)C(=O)N1C [Cyclo(N--Me--Leu--Phe--D-Trp-- Lys--Thr--Phe)] (cyclo(F[NMeL]F[dW]KT))
[1]
  Growth Hormone Release Inhibition In Vitro: 0.49(0.19-0.98)

## CC(C)[C@@H]1NC(=O)[C@H](CCCCN)NC(=O)[C@@H](Cc2c[nH]c3ccccc23)NC(=O)[C@H](Cc2ccc(O)cc2)NC(=O)[C@H](C)N(C)C(=O)[C@@H](Cc2ccccc2)NC1=O [Cyclo--(N--Me--Ala--Tyr--D-Trp-- Lys--Val--D-Phe)]
[1]
  Growth Hormone Release Inhibition In Vitro: 5.0(3.12-8.17)

## Cyclo--(N--Me--Ala--O--I--Phe--D-Trp-- Lys--Val--Phe)
[1]
  Growth Hormone Release Inhibition In Vitro: 13.9(9.5-20.0)

## C[C@@H](O)[C@@H]1NC(=O)[C@H](CCCCN)NC(=O)[C@@H](Cc2c[nH]c3ccccc23)NC(=O)[C@H](Cc2ccccc2)NC(=O)CN(C)C(=O)[C@H](Cc2ccccc2)NC1=O [Cyclo--(Sar--Phe--D-Trp-- Lys--Thr--Phe)] (cyclo(F[Sar]F[dW]KT))
[1]
  Growth Hormone Release Inhibition In Vitro: 1.47(0.93-2.3)

## C[C@H]1C(=O)N[C@@H](Cc2c[nH]cn2)C(=O)N[C@H](Cc2c[nH]c3ccccc23)C(=O)N[C@@H](CCCCN)C(=O)N[C@@H](CO)C(=O)N[C@@H](Cc2c[nH]c3ccccc23)C(=O)N1C [Cyclo--(N--Me--Ala--His--D-Trp-- Lys--Ser--Trp)] (cyclo(H[dW]KSW[NMeA]))
[1]
  Growth Hormone Release Inhibition In Vitro: 1.45(0.9-2.06)

## CC(C)[C@@H]1NC(=O)[C@H](CCCCN)NC(=O)[C@@H](Cc2c[nH]c3ccccc23)NC(=O)[C@H](Cc2ccc(O)cc2)NC(=O)[C@H](C)N(C)C(=O)[C@H](Cc2ccccc2)NC1=O [Cyclo--(N--Me--Ala--Tyr--D-Trp-- Lys--Val--Phe)]
[1]
  Growth Hormone Release Inhibition In Vitro: 52(35-75)

## C[C@@H]1C(=O)N[C@@H](Cc2ccccc2)C(=O)N[C@H](Cc2c[nH]c3ccccc23)C(=O)N[C@@H](CCCCN)C(=O)N[C@@H]([C@@H](C)O)C(=O)N[C@@H](Cc2ccccc2)C(=O)N1C [Cyclo(N--Me--D-Ala-- Phe--D-Trp-- Lys--Thr--Phe)] (cyclo(F[dNMeA]F[dW]KT))
[2]
  Gastric Secretion % Inhibition Acid Concentration 0-30: 12%
  Gastric Secretion % Inhibition Acid Concentration 30-60: 34%
  Gastric Secretion % Inhibition Acid Concentration 60-90: 9%
  Gastric Secretion % Inhibition Acid Concentration 90-120: 0%
  Gastric Secretion % Inhibition Vol. 0-30: 50%
  Gastric Secretion % Inhibition Vol. 30-60: 84%
  Gastric Secretion % Inhibition Vol. 60-90: 0%
  Gastric Secretion % Inhibition Vol. 90-120: 0%
[1]
  Growth Hormone Release Inhibition In Vitro: 2.13(0.83-6.00)
